± gives the standard deviation of the averaged measurements.
Columns and labels:
[1] = compound: CC/C(=C(\c1ccc(O)cc1)c1ccc(OCCN(C)C)cc1)c1ccccc1 [AFIMOXIFENE]; test: surviving fraction relative to DMSO-only wells; higher = less growth inhibition; settings: exposure time: 5 days
How it was run: (§1)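 A line counted only if its three screens reached replicate Pearson r >0.7 and median Z' >0.3. Tumour cells in log phase were seeded at 250–500 per well in 384-well plates and, after 24 hours, kept in continuous contact with inhibitors at 0.5, 1, 5, 10, 50, 100, 500 and 1000 nM for five days. Surviving fraction was taken from CellTiter-Glo luminescence relative to the median of DMSO-only wells.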

[2] = compound: COc1cc2nccc(Oc3ccc(NC(=O)C4(C(=O)Nc5ccc(F)cc5)CC4)cc3)c2cc1OC [CABOZANTINIB]; test: as above; settings: exposure time: 5 days
How it was run: as §1

Test System	surviving fraction ([1]; 0.5 nM)	surviving fraction ([1]; 1 nM)	surviving fraction ([1]; 5 nM)	surviving fraction ([1]; 10 nM)	surviving fraction ([1]; 50 nM)	surviving fraction ([1]; 100 nM)	surviving fraction ([1]; 500 nM)	surviving fraction ([1]; 1000 nM)	surviving fraction ([2]; 0.5 nM)	surviving fraction ([2]; 1 nM)	surviving fraction ([2]; 5 nM)	surviving fraction ([2]; 10 nM)	surviving fraction ([2]; 50 nM)	surviving fraction ([2]; 100 nM)	surviving fraction ([2]; 500 nM)	surviving fraction ([2]; 1000 nM)
JIMT1 BREAST	1.01 ± 0.045	0.972 ± 0.026	1 ± 0.032	0.994 ± 0.048	1.08 ± 0.065	1.05 ± 0.066	1.04 ± 0.08	0.939 ± 0.024	1.03 ± 0.049	1.04 ± 0.025	1.07 ± 0.029	1.04 ± 0.049	1.13 ± 0.048	1.1 ± 0.033	1.04 ± 0.043	1 ± 0.039
JURKAT HAEMATOPOIETIC AND LYMPHOID TISSUE	1.06 ± 0.023	1.03 ± 0.026	1.03 ± 0.021	1.04 ± 0.015	0.953 ± 0.024	0.935 ± 0.061	0.991 ± 0.011	1.03 ± 0.025	1.07 ± 0.015	1.03 ± 0.014	1.05 ± 0.042	1.05 ± 0.022	0.998 ± 0.036	0.985 ± 0.017	1.04 ± 0.021	0.972 ± 0.0044
KPD BONE	1.03 ± 0.043	1.03 ± 0.022	1.14 ± 0.088	1.07 ± 0.043	1.132 ± 0.011	1.1 ± 0.04	0.976 ± 0.049	0.83 ± 0.035	0.914 ± 0.031	0.985 ± 0.02	1.1 ± 0.045	1.04 ± 0.028	1.05 ± 0.036	1.03 ± 0.045	0.997 ± 0.068	0.956 ± 0.047
LM7 BONE	1.02 ± 0.12	1.07 ± 0.039	1.06 ± 0.063	1.09 ± 0.075	1.15 ± 0.092	1.09 ± 0.039	1.03 ± 0.016	0.914 ± 0.058	1.03 ± 0.091	0.998 ± 0.039	1.07 ± 0.035	1.04 ± 0.053	1.06 ± 0.11	1.09 ± 0.019	0.932 ± 0.015	0.889 ± 0.036
LNCAP PROSTATE	1.08 ± 0.041	0.942 ± 0.1	1.04 ± 0.063	1 ± 0.098	1.06 ± 0.061	1.04 ± 0.087	1.02 ± 0.08	0.983 ± 0.088	0.622 ± 0.084	1.02 ± 0.041	0.925 ± 0.05	0.897 ± 0.1	0.936 ± 0.042	0.976 ± 0.057	0.766 ± 0.013	0.383 ± 0.023
MCF7 BREAST	1.02 ± 0.045	0.976 ± 0.045	0.917 ± 0.036	0.928 ± 0.045	0.877 ± 0.035	0.857 ± 0.037	0.834 ± 0.046	0.775 ± 0.012	0.907 ± 0.019	0.836 ± 0.012	0.852 ± 0.029	0.863 ± 0.033	0.889 ± 0.015	0.933 ± 0.032	0.88 ± 0.066	0.91 ± 0.075
MDAMB134 BREAST	1.32 ± 0.15	1.06 ± 0.073	1.05 ± 0.011	0.975 ± 0.088	1.16 ± 0.074	0.932 ± 0.037	0.887 ± 0.095	0.908 ± 0.089	0.902 ± 0.12	0.888 ± 0.047	0.896 ± 0.13	1.04 ± 0.14	0.907 ± 0.23	0.943 ± 0.0042	0.955 ± 0.086	0.873 ± 0.086
MDAMB157 BREAST	1.04 ± 0.05	1.01 ± 0.062	1.04 ± 0.14	1.02 ± 0.072	1.06 ± 0.022	1.01 ± 0.014	0.942 ± 0.059	0.989 ± 0.12	0.933 ± 0.056	0.953 ± 0.049	1 ± 0.025	0.959 ± 0.031	0.994 ± 0.048	0.891 ± 0.054	0.798 ± 0.072	0.733 ± 0.03
MDAMB231 BREAST	0.987 ± 0.017	1.01 ± 0.032	1.01 ± 0.045	1.01 ± 0.023	1.02 ± 0.024	1.02 ± 0.018	1.01 ± 0.024	0.955 ± 0.035	0.853 ± 0.013	0.9576 ± 0.0047	0.969 ± 0.0068	0.978 ± 0.024	1.01 ± 0.018	1.005 ± 0.0054	0.908 ± 0.03	0.849 ± 0.019
MDAMB361 BREAST	0.875 ± 0.038	0.832 ± 0.096	0.756 ± 0.061	0.815 ± 0.11	0.854 ± 0.081	0.856 ± 0.037	1.09 ± 0.078	0.782 ± 0.013	0.842 ± 0.099	0.796 ± 0.056	0.816 ± 0.042	0.844 ± 0.06	0.93 ± 0.081	0.887 ± 0.1	0.903 ± 0.054	0.89 ± 0.12

Source: the supplement of paper PMC6045584
